In patent US10597366B2, “Aryl ethers and uses thereof” (Peloton Therapeutics, Inc., priority 2013, dated 2020):

System: HIF-2α HIS TAG-PASB Domain
Assay: HIF-2α Scintillation Proximity Assay (SPA)
Format: binding
Details: compounds listed by structure and IUPAC name
Procedure: The percent inhibition was determined and IC50 values were calculated using the Dotmatics system based on the following equation: % inhibition=[(high control sample)/(high control low control)]×100.

| SMILES | IC50 [µM] |
| --- | --- |
| N#Cc1cc(F)cc(Oc2ccc(/S(CF)=N/C(=O)C(F)(F)F)c3c2CC[C@H]3O)c1 (stereo partly drawn) [N-((R)-7-(3-cyano-5-fluorophenoxy)-3-hydroxy-2,3-dihydro-1H-inden-4-yl)(fluoromethyl)-λ^4-sulfanylidene)-2,2,2-trifluoroacetamide] | > 100 |
| CSc1ccc(Oc2cc(F)cc(C#N)c2)c2c1C(=O)CC2 [3-fluoro-5-(7-methylsulfanyl-1-oxo-indan-4-yl)oxy-benzonitrile] | > 100 |
| OC1CCc2c(Oc3cc(F)cc(Cl)c3)cccc21 (stereo not shown) [4-(3-chloro-5-fluoro-phenoxy)indan-1-ol] | > 100 |
| O=C(O)c1cc(F)cc(Oc2ccc(S(=O)(=O)C(F)(F)F)cc2Br)c1 [3-[2-bromo-4-(trifluoromethylsulfonyl)phenoxy]-5-fluoro-benzoic acid] | > 100 |
| Cc1ccccc1Oc1ccc(S(=O)(=O)C(F)(F)F)cc1Br [2-bromo-1-(2-methylphenoxy)-4-(trifluoromethylsulfonyl)benzene] | > 100 |
| N#Cc1cccc(Oc2ccc(C(F)(F)F)c(Cl)c2N)c1 [3-[2-amino-3-chloro-4-(trifluoromethyl)phenoxy]benzonitrile] | > 100 |
| COC(=O)c1cc(F)cc(Oc2ccc(S(=O)(=O)C(F)(F)F)cc2Br)c1 [methyl 3-[2-bromo-4-(trifluoromethylsulfonyl)phenoxy]-5-fluoro-benzoate] | > 100 |
| CS(=O)(=O)c1cccc(Oc2ccc(S(=O)(=O)C(F)(F)F)c3c2CC(F)(F)[C@H]3O)c1 [(1S)-2,2-difluoro-4-(3-methylsulfonylphenoxy)-7-(trifluoromethylsulfonyl)indan-1-ol] | > 100 |
| O=[N+]([O-])c1c(F)cccc1Oc1cccc(Cl)c1 [1-(3-chlorophenoxy)-3-fluoro-2-nitro-benzene] | > 100 |
| N#Cc1cccc(Oc2cc(F)cc(Cl)c2)c1Br [2-bromo-3-(3-chloro-5-fluoro-phenoxy)benzonitrile] | > 100 |
| CC1Cc2c(Oc3cc(F)cc(C#N)c3)ccc(S(C)(=O)=O)c2C1=O (stereo not shown) [3-fluoro-5-((2-methyl-7-(methylsulfonyl)-1-oxo-2,3-dihydro-1H-inden-4-yl)oxy)benzonitrile] | > 100 |
| CS(=O)(=O)c1ccc(Oc2cc(C#N)cc(Oc3ccc(S(C)(=O)=O)c4c3CC(F)(F)[C@H]4O)c2)c2c1[C@H](O)C(F)(F)C2 [3,5-bis[[(1S)-2,2-difluoro-1-hydroxy-7-methylsulfonyl-indan-4-yl]oxy]benzonitrile] | > 100 |
| CS(=O)(=O)c1ccc(Oc2cc(F)cc(F)c2)c2c1C(C#N)CC2 (stereo not shown) [4-(3,5-difluorophenoxy)-7-methylsulfonyl-indane-1-carbonitrile] | > 100 |

Second part, the compound after the results:

| IC50 [µM] | SMILES |
| --- | --- |
| > 100 | CS(=O)(=O)c1ccc(Oc2cc(F)cc(F)c2)c2c1C(NC(=O)c1ccc(F)cc1)C(F)(F)C2 (stereo not shown) [N-[4-(3,5-difluorophenoxy)-2,2-difluoro-7-methylsulfonyl-indan-1-yl]-4-fluoro-benzamide] |
| > 100 | O=S(=O)(c1ccc(Oc2cccn3cnnc23)c2c1[C@H](O)CC2)C(F)(F)F [(1R)-4-([1,2,4]triazolo[4,3-a]pyridin-8-yloxy)-7-(trifluoromethylsulfonyl)indan-1-ol] |
| > 100 | O=C(NO)c1c(S(=O)(=O)C(F)F)ccc(Oc2cc(F)cc(Cl)c2)c1Br [2-bromo-3-(3-chloro-5-fluoro-phenoxy)-6-(difluoromethylsulfonyl)benzenecarbohydroxamic acid] |
| > 100 | N#Cc1cc(F)cc(Oc2ccc(S(=O)(=O)C(F)(F)F)c3c2C[C@@H](F)[C@@H]3N)c1 [3-[(1R,2R)-1-amino-2-fluoro-7-(trifluoromethylsulfonyl)indan-4-yl]oxy-5-fluoro-benzonitrile] |
| > 100 | CN(C)Cc1c(S(=O)(=O)C(F)F)ccc(Oc2cc(F)cc(Cl)c2)c1Cl [1-[2-chloro-3-(3-chloro-5-fluoro-phenoxy)-6-(difluoromethylsulfonyl)phenyl]-N,N-dimethyl-methanamine] |
| > 100 | O=C1CCc2c(Oc3cc(F)cc(Cl)c3)cccc21 [4-(3-chloro-5-fluoro-phenoxy)indan-1-one] |
